Values after ≈ are worked out from the molar mass of the structure shown.
What was measured:
[1] = chloroform, benchmark; cited from earlier work
[2] = Phase behavior of POSS in polyetherimide (Ultem 1000, PEI): chloroform solutions and drop cast annealed films; type: physicochemical; conditions: for Appearance of chloroform solution containing PEI and POSS: 5 weight percent PEI in chloroform, POSS 5 weight percent with respect to PEI
Experimental: To examine the phase behavior of this new class of peripherally-asymmetric POSS nanoparticles with a representative aromatic polymer, attempts were made to solubilize both phenyl8Si8O12 and (1-naphthyl)phenyl7Si8O12 in polyetherimide (Ultem 1000, PEI). Chloroform solutions were prepared at a solute concentration of 5 weight percent PEI and POSS concentration of 5 weight percent with respect to PEI. Subsequent films from these solutions were drop cast onto glass substrates, dried under vacuum, and annealed at 220° C., above the glass transition temperature of PEI, to promote equilibrium phase formation.
Qualitatively, the dried and annealed films were visually observed to be of contrasting appearance.

[3] = Solubility of aromatic POSS compounds in organic solvents by visual measurements; type: physicochemical; conditions: visual measurement; for Solubility in CHCl3: chloroform; for Solubility in PE: phenyl ether; for Solubility in Tol: toluene; for Solubility in DMF: dimethyl formamide; for Solubility in THF: tetrahydrofuran
Experimental: The influence of the prescribed peripheral asymmetry of these compounds on solubility was determined by visual measurements in five organic solvents, including chloroform (CHCl3), tetrahydrofuran (THF), phenyl ether (PE), toluene (Tol), and dimethyl formamide (DMF), summarized in Table 1.
The substitution of a single polycyclic aromatic ring on the POSS cage improves solubility substantially in most cases. However, it is difficult to predict the influence of each aromatic group on the observed solubility, as well as in which solvent the solubility will be affected. Modification with a 1-naphthyl group to produce (1-naphthyl)-phenyl7Si8O12 (3) results in solubility in CHCl3 and THF exceeding 100 mg/mL and the observance of more finite solubility in the other investigated solvents. Modification with a 2-naphthyl group to produce (2-naphthyl)phenyl7Si8O12 (4) increases solubility in PE and DMF, but reduces solubility in THF and CHCl3, when compared to (1-naphthyl)-phenyl7Si8O12 (3).

Row | Compound | Solubility in CHCl3 (previously documented) [1] | Appearance of chloroform solution containing PEI and POSS [2] | Visual appearance of dried and annealed PEI film ([2]; drop cast film, annealed at 220° C.) | Length scale of aggregated particles in PEI film ([2]; drop cast film, annealed at 220° C., microscopy, some regions) | Solubility in CHCl3 [3] | Solubility in PE [3] | Solubility in Tol [3] | Solubility in DMF [3] | Solubility in THF [3] | Phase separation length scale in PEI film ([2]; drop cast film, annealed at 220° C., microscopy)
1 | c1ccc([Si]23O[Si]4(c5ccccc5)O[Si]5(c6ccccc6)O[Si](c6ccccc6)(O2)O[Si]2(c6ccccc6)O[Si](c6ccccc6)(O3)O[Si](c3ccccc3)(O4)O[Si](c3ccccc3)(O5)O2)cc1 [Compound 2, phenyl8Si8O12] | about 1 mg/mL | cloudy | significantly more opaque | greater than 1 mm | 1 mg/mL (≈ 968 µM) | ^a (Insoluble.) | ^a (Insoluble.) | – | – | –
2 | (9-phenanthrenyl)-phenyl7Si8O12 [Compound 5] | – | – | – | – | 52 mg/mL | 25 mg/mL | 27 mg/mL | 57 mg/mL | 117 mg/mL | –
3 | (1-pyrenyl)phenyl7Si8O12 [Compound 6] | – | – | – | – | 7 mg/mL | 4 mg/mL | 5 mg/mL | 5 mg/mL | 10 mg/mL | –
4 | (2-naphthyl)phenyl7Si8O12 [Compound 4] | – | – | – | – | 55 mg/mL | 53 mg/mL | ^a (Insoluble.) | 35 mg/mL | 28 mg/mL | –
5 | (1-naphthyl)-phenyl7Si8O12 [Compound 3] | – | transparent | – | – | – | 15 mg/mL | ^a (Insoluble.) | 24 mg/mL | – | less than 5 microns

Source: patent publication US9315527B2, “Synthesis and applications of peripherally asymmetric aryl POSS compounds” (The United States of America as Represented by the …, priority 2011, dated 2016)
